Measurements: patent US9113629B2, “4-amino-6-(4-substituted-phenyl)-picolinates and 6-amino-2-(4-substituted-phenyl)-pyrimidine-4-carboxylates and their use as herbicides” (DOW AGROSCIENCES LLC, priority 2013, dated 2015)
Where two headings read alike, the source gives them in different places.

Columns and labels:
[1] = tested on: Key Broadleaf Weed and Crop Species; assay: Post-emergent Test II herbicidal activity (Table 5); assay type: in vivo; conditions: post-emergence, 336 h, post-emergent, 14 days after application; for pest or weed control at 70 g/ha: 70 g ai/ha; for pest or weed control at 140 g/ha: 140 g ai/ha
In short: (§1)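 Scoring: visual, 0–100% injury at 14 d versus untreated. Treatment: overhead track spray, 187 L/ha, onto plants at the first–second true leaf stage. Growth: greenhouse, ~15 h light, 23–29 °C day, 22–28 °C night.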

[2] = tested on: Key Grass and Sedge Weeds as well as Grass Crops; assay: Post-emergent Test II herbicidal activity (Table 6); assay type: in vivo; conditions: post-emergence, 336 h; for pest or weed control at 70 g/ha: application rate 70 g ai/ha; for pest or weed control at 140 g/ha: application rate 140 g ai/ha
In short: as §1

[3] = ABUTH: velvetleaf (Abutilon theophrasti), read-out: Visual Growth Reduction (%) 14 Days After Application ABUTH
[4] = AMARE: redroot pigweed (Amaranthus retroflexus), read-out: Visual Growth Reduction (%) 14 Days After Application AMARE
[5] = BRSNN: oilseed-rape, canola (Brassica napus), read-out: Visual Growth Reduction (%) 14 Days After Application BRSNN
[6] = CHEAL: lambsquarters (Chenopodium album), read-out: Visual Growth Reduction (%) 14 Days After Application CHEAL
[7] = EPHHL: wild poinsettia (Euphorbia heterophylla), read-out: Visual Growth Reduction (%) 14 Days After Application EPHHL
[8] = HELAN: sunflower (Helianthus annuus), read-out: Visual Growth Reduction (%) 14 Days After Application HELAN
[9] = VIOTR: wild pansy (Viola tricolor), read-out: Visual Growth Reduction (%) 14 Days After Application VIOTR
[10] = Triticum aestivum, TRZSS (wheat), read-out: Visual Growth Reduction (%) 14 Days After Application, TRZSS
[11] = CYPES: yellow nutsedge (Cyperus esculentus), read-out: Visual Growth Reduction (%) 14 Days After Application, CYPES
[12] = DIGSA: crabgrass (Digitaria sanguinalis), read-out: Visual Growth Reduction (%) 14 Days After Application, DIGSA
[13] = ECHCG: barnyardgrass (Echinochloa crus-galli), read-out: Visual Growth Reduction (%) 14 Days After Application, ECHCG
[14] = ORYSA: rice (Oryza sativa), read-out: Visual Growth Reduction (%) 14 Days After Application, ORYSA
[15] = SETFA: giant foxtail (Setaria faberi), read-out: Visual Growth Reduction (%) 14 Days After Application, SETFA
[16] = SORVU: grain sorghum (Sorghum vulgare), read-out: Visual Growth Reduction (%) 14 Days After Application, SORVU
[17] = ZEAMX: maize, corn (Zea mays), read-out: Visual Growth Reduction (%) 14 Days After Application, ZEAMX

Row | Compound | pest or weed control at 70 g/ha [1, 3] [%] | pest or weed control at 140 g/ha [1, 3] [%] | pest or weed control at 70 g/ha [1, 4] [%] | pest or weed control at 140 g/ha [1, 4] [%] | pest or weed control at 70 g/ha [1, 5] [%] | pest or weed control at 140 g/ha [1, 5] [%] | pest or weed control at 70 g/ha [1, 6] [%] | pest or weed control at 140 g/ha [1, 6] [%] | pest or weed control at 70 g/ha [1, 7] [%] | pest or weed control at 140 g/ha [1, 7] [%] | pest or weed control at 70 g/ha [1, 8] [%] | pest or weed control at 140 g/ha [1, 8] [%] | pest or weed control at 70 g/ha [1, 9] [%] | pest or weed control at 140 g/ha [1, 9] [%] | pest or weed control at 70 g/ha [2, 10] [%] | pest or weed control at 140 g/ha [2, 10] [%] | pest or weed control at 70 g/ha [2, 11] [%] | pest or weed control at 140 g/ha [2, 11] [%] | pest or weed control at 70 g/ha [2, 12] [%] | pest or weed control at 70 g/ha [2, 13] [%] | also measured
1 | COC(=O)c1nc(-c2ccc(Br)cc2)c(Cl)c(N)c1Cl [Compound 47] | 95 to 100 | 95 to 100 | 95 to 100 | 95 to 100 | 95 to 100 | 95 to 100 | 95 to 100 | 95 to 100 | 85 to 94 | 95 to 100 | 95 to 100 | 95 to 100 | 0 to 29 | 0 to 29 | 45 to 59 | 45 to 59 | 85 to 94 | 95 to 100 | 75 to 84 | 85 to 94 | pest or weed control at 140 g/ha [2, 12]: 75 to 84%; pest or weed control at 140 g/ha [2, 13]: 85 to 94%; pest or weed control at 70 g/ha [2, 14]: 0 to 29%; pest or weed control at 140 g/ha [2, 14]: 0 to 29%; pest or weed control at 70 g/ha [2, 15]: 85 to 94%; pest or weed control at 140 g/ha [2, 15]: 95 to 100%; pest or weed control at 70 g/ha [2, 16]: 85 to 94%; pest or weed control at 140 g/ha [2, 16]: 85 to 94%; pest or weed control at 70 g/ha [2, 17]: 85 to 94%; pest or weed control at 140 g/ha [2, 17]: 85 to 94%
2 | COC(=O)c1nc(-c2cc(F)c(Br)cc2F)c(F)c(N)c1Cl [Compound 51, methyl 4-amino-6-(4-bromo-2,5-difluorophenyl)-3-chloro-5-fluoropicolinate] | 95 to 100 | 95 to 100 | 95 to 100 | 95 to 100 | 95 to 100 | 95 to 100 | 95 to 100 | 95 to 100 | 95 to 100 | 95 to 100 | 95 to 100 | 95 to 100 | 95 to 100 | 95 to 100 | 60 to 74 | 85 to 94 | 95 to 100 | 95 to 100 | 95 to 100 | 95 to 100 | pest or weed control at 140 g/ha [2, 13]: 95 to 100%; pest or weed control at 70 g/ha [2, 14]: 0 to 29%; pest or weed control at 140 g/ha [2, 14]: 0 to 29%; pest or weed control at 70 g/ha [2, 15]: 95 to 100%; pest or weed control at 140 g/ha [2, 15]: 95 to 100%; pest or weed control at 70 g/ha [2, 16]: 95 to 100%; pest or weed control at 140 g/ha [2, 16]: 95 to 100%; pest or weed control at 70 g/ha [2, 17]: 85 to 94%; pest or weed control at 140 g/ha [2, 17]: 85 to 94%
3 | C=Cc1c(C(=O)OC)nc(-c2ccc(C(F)(F)F)c(F)c2F)c(F)c1N [Compound 53, methyl 4-amino-6-(2,3-difluoro-4-(trifluoromethyl)phenyl)-5-fluoro-3-vinylpicolinate] | 0 to 29 | 0 to 29 | 0 to 29 | 0 to 29 | 0 to 29 | 0 to 29 | 0 to 29 | 0 to 29 | 95 to 100 | 95 to 100 | 0 to 29 | 0 to 29 | 0 to 29 | 0 to 29 | 0 to 29 | 0 to 29 | 0 to 29 | 0 to 29 | 0 to 29 | 0 to 29 | pest or weed control at 140 g/ha [2, 12]: 0 to 29%; pest or weed control at 140 g/ha [2, 13]: 0 to 29%; pest or weed control at 70 g/ha [2, 14]: 0 to 29%; pest or weed control at 140 g/ha [2, 14]: 0 to 29%; pest or weed control at 70 g/ha [2, 15]: 0 to 29%; pest or weed control at 140 g/ha [2, 15]: 0 to 29%; pest or weed control at 70 g/ha [2, 16]: 0 to 29%; pest or weed control at 140 g/ha [2, 16]: 0 to 29%; pest or weed control at 70 g/ha [2, 17]: 0 to 29%; pest or weed control at 140 g/ha [2, 17]: 0 to 29%
